This is an account of results in PMC8305768, “Design, Synthesis and Antiparasitic Evaluation of Click Phospholipids” (Molecules, 2021).

Where a name gives a salt, the structure may show the parent alone. Read-outs that look alike come from different tables or passages of the source.

The subject of assay [1] is L. infantum MHOM/TN/80/LEM235 intracellular amastigotes. As to the kind of experiment: Activity against L. infantum MHOM/TN/80/LEM235 intramacrophage amastigotes (infected THP-1, Giemsa staining). The class given is cell-based, Leishmania infantum. The following applies: for Selectivity Index CC50/IC50: CC50 THP-1 / IC50 L. infantum MHOM/TN/80/LEM235; for IC50: Leishmania infantum, read-out: L. infantum MHOM/TN/80/LEM235 intracellular amastigotes IC50 ± SD. As for the experimental part:
THP-1 cells were differentiated with […] retinoic acid (Sigma, Saint Louis, MI, USA) for 3 days at 37 °C and 5% CO2. Infection of THP-1 cells with promastigotes was achieved by mixing the THP-1 and the parasite cultures at a ratio of 1:4 and incubation at 37 °C and 5% CO2. The next day cells were washed by centrifugation at 400 × g for 10 min, the pellet was resuspended in RPMI medium, and the suspension was overlaid with an equal volume of Histopaque 1077 (Invitrogen, Waltham, MA, USA). The free promastigotes were removed by centrifugation at 1000 × g for 20 min. The cell layer was washed with PBS twice and resuspended in RPMI at 4 × 10^5 cells/mL. Infection rate was assessed microscopically by Giemsa staining of the infected THP-1 suspension. An amount of 200 µL of infected THP-1 was plated in a 24-well tissue culture plate (Cellstar®, Greiner) (Sigma-Aldrich Chemie GMBH, Taufkirchen, Germany) and mixed with an equal volume of the appropriate compound concentration (compounds were dissolved in DMSO/ethanol, 50/50 v/v, to a final concentration of 65 mM and linear 5-fold dilutions ranging from 100 to 0.8 µM were done in the culture medium). Incubation proceeded for 72 h at 37 °C and 5% CO2, and the percentage of infected cells was monitored microscopically after Giemsa staining.

For assay [2], the system named is T. cruzi epimastigotes (Y strain). Briefly: Antiproliferative assay on T. cruzi epimastigotes. Format: cell-based. The following applies: Trypanosoma cruzi. The protocol:
T. cruzi epimastigotes (Y strain) were obtained by axenic cultivation in the LIT medium, supplemented with 10% FBS (Cultilab, São Paulo, Brazil). Cultures were maintained at […] for 4–5 days until they reached the log growth phase. New cultures were made every 4 days from the initial inoculum of 2 × 10^6 parasites/mL. T. cruzi trypomastigotes (Y strain) were maintained in culture by the infection of LLC-MK2 (ATTC-CCL7) epithelial cells. This cell line was cultured in […] tissue culture bottles (TPP) in RPMI 1640 medium (Gibco), (Thermo Fischer Scientific, Carlsbad, CA, USA) supplemented with 10% FBS (Gibco) (Thermo Fischer Scientific, Carlsbad, CA, USA). Cultures were maintained at 37 °C under 5% CO2 atmosphere, and RPMI 1640 medium and SFB were exchanged every 48 h. After confluence, the cultures were treated with 1 mL of a mixture of trypsin and versene (Sigma, São Paulo, Brazil) (0.2 and 0.002%, respectively). After 24 h, a subconfluence culture was infected with the trypomastigotes in the approximate proportion of 10:1 parasites/cell. From five to seven days post infection, the trypomastigote stage was obtained from the culture supernatant. Alternatively (Figure 2), T. cruzi strain Y was maintained as previously described.
The trypomastigotes were obtained from the supernatant of a previously infected cell line (LLC-MK2). Between 5 and 7 days after infection, protozoa were collected from the supernatants of the infected LLC-MK2 cells and were then incubated with fresh RPMI 1640 medium supplemented with 0.5% FBS, with or without the compounds, for 24 h at 37 °C under a 5% CO2 atmosphere. […] The experiment was performed in duplicate for each of the three different experiments. For the antiproliferative assay involving epimastigotes, […] were cultivated in LIT medium supplemented with 10% FBS. After 24 h of epimastigote growth, different concentrations of 50 nM to 50 µM were added to the culture and incubated for 120 h at 28 °C. Cells were collected every 24 h for counting in a Neubauer chamber. Two controls were used and consisted of liver infusion broth-tryptose (LIT) supplemented with 10% FBS and LIT added with 0.01% DMSO. To investigate the effect of the compounds on intracellular amastigotes, peritoneal macrophages from Swiss mouse (CF1) plated in 96 wells plates (Costar®, Sigma, São Paulo, Brazil) were incubated for 2 h with T. cruzi trypomastigotes at a ratio of 10 parasites to 1 cell. The non-internalized parasites were removed by washing with the RPMI 1640 medium, and the host cells were incubated for 24 h at 37 °C to allow full internalization and differentiation of trypomastigotes to amastigotes. Fresh 10% FBS-RPMI 1640 medium with 1 µg/mL Hoescht 3348 and 1 µg/mL of WGA-FITC (control) or the same solution containing the inhibitors was added to the infected cells, which were then incubated for 96 h at 37 °C. Every 24 h samples were taken and analysed in high content equipment (InCell Analyser 2000, GE Healthcare, Chicago, IL, USA) with 20× air objective (NA 0.4) using respectively filters to excitation and emission to DAPI (405/455 nm), FITC (488/505 nm) and Cy3 (514/605 nm). Six images were collected for each well for reliable statistical analysis. […] The infection index (i.e., the percentage of infected host cells multiplied by the average number of intracellular amastigotes per infected host cell) was determined by counting a total of 500 host cells. Inhibitor activity was calculated using the SigmaPlot (version 10) program (Systat Software, Inc., San Jose, CA, USA). The results are expressed as the mean values from three independent experiments. The IC50 was calculated for promastigotes and intracellular amastigotes by fitting the values to a non-linear curve analysis. The regression analyses were performed with SigmaPlot 10 (version 10) program (Systat Software, Inc., San Jose, CA, USA).

In assay [3] the test system is T. b. brucei L427 WT bloodstream form. Briefly: Activity against T. brucei bloodstream forms (resazurin-based assay). The following applies: Trypanosoma brucei; 10 μM, 72 h; read-out: Single Dose Assay 10μM Mean Inhibitory Activity (%) ± SD. The class given is cell-based. As for the experimental part:
Trypanosoma brucei brucei Lister 427 bloodstream forms were grown at 37 °C, 5% CO2 in complete HMI-9 medium supplemented with 10% foetal calf serum (FCS) and 100 UI/mL of penicillin/streptomycin. […] The efficacy of compounds against T. brucei bloodstream forms was evaluated using a modified resazurin-based assay previously described. Mid-log bloodstream forms were added to an equal volume of serial dilutions of compounds in supplemented complete HMI-9 medium at a final cell density of 5 × 10^3/mL. Following incubation for 72 h at 37 °C 5% CO2, 20 μL of a 0.5 mM resazurin solution was added and plates were incubated for a further 4 h under the same conditions. Fluorescence was measured at 540 nm and 620 nm excitation and emission wavelength, respectively, using a Synergy 2 Multi-Mode Reader (Biotek, Winooski, VT, USA).
(In general: Resazurin is reduced to fluorescent resorufin, in cell work by metabolically active cells.)

[4] abbreviates: epimastigotes, 24 h, read-out: IC50 24 h.
The mark [5] stands for this setting: epimastigotes, 48 h, read-out: IC50 48 h.
[6] abbreviates: epimastigotes, 72 h, read-out: IC50 72 h.

Turning to `CCCCCc1cn(CCCCCCCCCCCOP(=O)([O-])OCC[N+](C)(C)C)nn1` [Compound 25, 11-(4-pentyl-1H-1,2,3-triazol-1-yl)undecyl (2-(trimethylammonio)ethyl) phosphate inner salt], in assay [1], the “Selectivity Index CC50/IC50” value is above 10.7. Besides, the IC50 in assay [1] (infected THP-1 cells, 72 h) is 9.33 ± 0.99 µM; in assay [2] (setting [4]), 7.8 µM; in assay [2] (setting [5]), 3.85 µM; in assay [2] (setting [6]), 2.16 µM.
As to `C[N+](C)(C)CCOP(=O)([O-])OCCCCCCCCCCCn1cc(CC2CCCC2)nn1` [Compound 28, 11-(4-(cyclopentylmethyl)-1H-1,2,3-triazol-1-yl)undecyl (2-(trimethylammo nio)ethyl) phosphate inner salt], the “Selectivity Index CC50/IC50” value in assay [1] is reported as above 66.7. Besides, the IC50 in assay [1] (infected THP-1 cells, 72 h) was determined as 1.5 ± 0.4 µM. The inhibition at 10 µM in assay [3] is below 20%.
For `C[N+](C)(C)CCOP(=O)([O-])OCCCCCCCCCCCn1cc(CC2CCCCC2)nn1` [Compound 29, 11-(4-(cyclohexylmethyl)-1H-1,2,3-triazol-1-yl)undecyl (2-(trimethylammonio)ethyl) phosphate inner salt], in assay [1], the “Selectivity Index CC50/IC50” value is recorded as above 200. Besides, the IC50 is 0.5 ± 0.2 µM in assay [1] (infected THP-1 cells, 72 h); above 10 µM in assay [2] (setting [4]); above 10 µM in assay [2] (setting [5]); above 10 µM in assay [2] (setting [6]).
On to `C[N+](C)(C)CCOP(=O)([O-])OCCCCCn1cc(CCCCCCCCNC(=O)OCc2ccccc2)nn1` [Compound 31, 5-(4-(8-(((benzyloxy)carbonyl)amino)octyl)-1H-1,2,3-triazol-1-yl)pentyl (2-(trimethylammonio)ethyl) phosphate inner salt], for which the inhibition at 10 µM in assay [3] came to 20 ± 1%.
On to `C[N+](C)(C)CCOP(=O)([O-])OCCCCCCCCCCCn1cc(CCCCCCCCNC(=O)OCc2ccccc2)nn1` [Compound 32, 11-(4-(8-(((benzyloxy)carbonyl)amino)octyl)-1H-1,2,3-triazol-1-yl)undecyl (2-(trimethylammonio)ethyl) phosphate inner salt], for which the inhibition at 10 µM in assay [3] was 36 ± 4%.
As for `C[N+](C)(C)CCCOP(=O)([O-])OCCCCCCCCCCCn1cc(CC2CCCCC2)nn1` [Compound 33, 11-(4-(cyclohexylmethyl)-1H-1,2,3-triazol-1-yl)undecyl (3-(trimethylammonio)propyl) phosphate inner salt], the inhibition at 10 µM in assay [3] was 23 ± 3%.
In the case of `CCCCCCCCCCCCCCCCOP(=O)([O-])OCC[N+](C)(C)C` [Miltefosine, hexadecylphosphocholine, reference compound], in assay [1], the “Selectivity Index CC50/IC50” value came out at 4.9. For the same molecule, the IC50 in assay [1] (THP-1, 72 h) turned out to be 6.68 ± 0.96 µM; in assay [2] (24 h, read-out: IC50 24 h) it was 18.4 ± 1.2 µM; in assay [2] (48 h, read-out: IC50 48 h), 9.5 ± 0.9 µM; in assay [2] (72 h, read-out: IC50 72 h), 8.34 µM.
